According to ChEMBL document CHEMBL3734758, “Protective effects of 5,7,4'-trihydroxy-6,3'dimethoxy-flavone 5-O-α-l-rhamnopyranoside, isolated from Annona squamosa leaves in thyrotoxicosis and in hepatic lipid peroxidation in rats” (Bioorg Med Chem Lett, 2015):
Calls of active or inactive are those of the source. The calls are words filed in the database; no cut-off is given here.

Legend:
Rattus norvegicus [1] = assay: Inhibition of L-T4-induced increase in lipid peroxidation in albino Wistar rat assessed as malondialdehyde formed per mg of protein at 5 mg/kg/day, po cotreated with 0.5 mg/kg L-T4 for 15 days (reference value: 0.977 +/- 0.035 nM/hr); format: functional
Rattus norvegicus [2] = assay: Inhibition of L-T4-induced decrease in GSH level in albino Wistar rat liver at 5 mg/kg/day, po cotreated with 0.5 mg/kg L-T4 for 15 days; format: functional, organism-based
Rattus norvegicus [3] = assay: Inhibition of L-T4-induced decrease in triglyceride level in albino Wistar rat at 5 mg/kg/day, po cotreated with 0.5 mg/kg L-T4 for 15 days (reference value: 42.15 +/- 3.23 mg/dl); format: functional
Rattus norvegicus [4] = assay: Inhibition of L-T4-induced decrease in catalase activity in albino Wistar rat liver assessed as H2O2 decomposition at 5 mg/kg/day, po cotreated with 0.5 mg/kg L-T4 for 15 days by spectrophotmetry; format: functional, organism-based
Rattus norvegicus [5] = assay: Inhibition of L-T4-induced increase in lipid peroxidation in albino Wistar rat assessed as malondialdehyde formed per mg of protein at 10 mg/kg/day, po cotreated with 0.5 mg/kg L-T4 for 15 days (reference value: 0.977 +/- 0.035 nM/hr); format: functional
Rattus norvegicus [6] = assay: Inhibition of L-T4-induced increase in lipid peroxidation in albino Wistar rat assessed as malondialdehyde formed per mg of protein at 2.5 mg/kg/day, po cotreated with 0.5 mg/kg L-T4 for 15 days (reference value: 0.977 +/- 0.035 nM/hr); format: functional
Rattus norvegicus [7] = assay: Toxicity in albino Wistar rat assessed as total cholesterol level at 5 mg/kg/day, po for 15 days (reference value: 114.97 +/- 4.76 mg/dl); format: organism-based; settings: in vivo, 360 h
Rattus norvegicus [8] = assay: Inhibition of L-T4-induced increase in T3 level in albino Wistar rat at 10 mg/kg/day, po cotreated with 0.5 mg/kg L-T4 for 15 days by RIA (reference value: 1.55 +/- 0.131 ng/ml); format: functional
Rattus norvegicus [9] = assay: Inhibition of L-T4-induced increase in T4 level in albino Wistar rat at 10 mg/kg/day, po cotreated with 0.5 mg/kg L-T4 for 15 days by RIA (reference value: 112.86 +/- 4.77 ng/ml); format: functional
Rattus norvegicus [10] = assay: Inhibition of L-T4-induced decrease in high-density lipoprotein cholesterol in albino Wistar rat at 5 mg/kg/day, po cotreated with 0.5 mg/kg L-T4 for 15 days (reference value: 20.18 +/- 2.32 mg/dl); format: functional
Rattus norvegicus [11] = assay: Toxicity in albino Wistar rat assessed as high-density lipoprotein cholesterol level at 5 mg/kg/day, po for 15 days (reference value: 45.52 +/- 3.08 mg/dl); format: organism-based; settings: in vivo, 360 h
Rattus norvegicus [12] = assay: Toxicity in albino Wistar rat assessed as low-density lipoprotein cholesterol level at 5 mg/kg/day, po for 15 days (reference value: 83.85 +/- 2.96 mg/dl); format: organism-based; settings: in vivo, 360 h
Rattus norvegicus [13] = assay: Inhibition of L-T4-induced increase in T3 level in albino Wistar rat at 5 mg/kg/day, po cotreated with 0.5 mg/kg/day L-T4 for 15 days by RIA (reference value: 1.55 +/- 0.131 ng/ml); format: functional
Rattus norvegicus [14] = assay: Toxicity in albino Wistar rat assessed as triglyceride level at 5 mg/kg/day, po for 15 days (reference value: 73.33 +/- 3.1 mg/dl); format: organism-based; settings: in vivo, 360 h
Rattus norvegicus [15] = assay: Inhibition of L-T4-induced increase in hepatic 5-monodeiodinase-l activity in albino Wistar rat assessed as T3 formation at 5 mg/kg/day, po cotreated with 0.5 mg/kg L-T4 for 15 days by RIA; format: functional, organism-based
Rattus norvegicus [16] = assay: Inhibition of L-T4-induced decrease in SOD activity in albino Wistar rat liver at 5 mg/kg/day, po cotreated with 0.5 mg/kg L-T4 for 15 days; format: functional, organism-based
Rattus norvegicus [17] = assay: Inhibition of L-T4-induced loss of body weight in albino Wistar rat assessed as increase in body weight at 5 mg/kg/day, po cotreated with 0.5 mg/kg L-T4 for 15 days […]; format: functional, organism-based
Rattus norvegicus [18] = assay: Inhibition of L-T4-induced increase in T4 level in albino Wistar rat at 5 mg/kg/day, po cotreated with 0.5 mg/kg L-T4 for 15 days by RIA (reference value: 112.86 +/- 4.77 ng/ml); format: functional
Rattus norvegicus [19] = assay: Inhibition of L-T4-induced decrease in total cholesterol level in albino Wistar rat at 5 mg/kg/day, po cotreated with 0.5 mg/kg L-T4 for 15 days (reference value: 58.77 +/- 3.95 mg/dl); format: functional
Rattus norvegicus [20] = assay: Inhibition of L-T4-induced decrease in very low-density lipoprotein cholesterol in albino Wistar rat at 5 mg/kg/day, po cotreated with 0.5 mg/kg L-T4 for 15 days (reference value: 8.65 +/- 2.76 mg/dl); format: functional
Rattus norvegicus [21] = assay: Toxicity in albino Wistar rat assessed as very low-density lipoprotein cholesterol level at 5 mg/kg/day, po for 15 days (reference value: 14.85 +/- 2.43 mg/dl); format: organism-based; settings: in vivo, 360 h
Rattus norvegicus [22] = assay: Inhibition of L-T4-induced increase in T4 level in albino Wistar rat at 2.5 mg/kg/day, po cotreated with 0.5 mg/kg L-T4 for 15 days by RIA (reference value: 112.86 +/- 4.77 ng/ml); format: functional
Rattus norvegicus [23] = assay: Inhibition of L-T4-induced increase in T3 level in albino Wistar rat at 2.5 mg/kg/day, po cotreated with 0.5 mg/kg L-T4 for 15 days by RIA (reference value: 1.55 +/- 0.131 ng/ml); format: functional
Rattus norvegicus [24] = assay: Inhibition of L-T4-induced decrease in low-density lipoprotein cholesterol in albino Wistar rat at 5 mg/kg/day, po cotreated with 0.5 mg/kg L-T4 for 15 days (reference value: 31.68 +/- 4.25 mg/dl); format: functional
Rattus norvegicus [25] = assay: Inhibition of L-T4-induced increase in Glucose-6-phosphate activity in albino Wistar rat at 5 mg/kg/day, po cotreated with 0.5 mg/kg L-T4 for 15 days […]; format: functional, organism-based

COc1cc(-c2cc(=O)c3c(O[C@@H]4O[C@@H](C)[C@H](O)[C@@H](O)[C@H]4O)c(OC)c(O)cc3o2)ccc1O
Activity (Rattus norvegicus [1]): 0.239 nM/h
inhibition (Rattus norvegicus [2]): Active
Activity (Rattus norvegicus [3]): 68.31 mg/dL
inhibition (Rattus norvegicus [4]): Active
Activity (Rattus norvegicus [5]): 0.512 nM/h
Activity (Rattus norvegicus [6]): 0.619 nM/h
Activity (Rattus norvegicus [7]): 96.22 mg/dL
Activity (Rattus norvegicus [8]): 1.39 ng/mL
Activity (Rattus norvegicus [9]): 102.45 ng/mL
Activity (Rattus norvegicus [10]): 40.95 mg/dL
Activity (Rattus norvegicus [11]): 48.97 mg/dL
Activity (Rattus norvegicus [12]): 60.16 mg/dL
Activity (Rattus norvegicus [13]): 0.43 ng/mL
Activity (Rattus norvegicus [14]): 61.1 mg/dL
inhibition (Rattus norvegicus [15]): Active
inhibition (Rattus norvegicus [16]): Active
Activity (Rattus norvegicus [17]): Active
Activity (Rattus norvegicus [18]): 56.7 ng/mL
Activity (Rattus norvegicus [19]): 98.14 mg/dL
Activity (Rattus norvegicus [20]): 14.09 mg/dL
Activity (Rattus norvegicus [21]): 12.91 mg/dL
Activity (Rattus norvegicus [22]): 98.6 ng/mL
Activity (Rattus norvegicus [23]): 1.01 ng/mL
Activity (Rattus norvegicus [24]): 72.42 mg/dL
inhibition (Rattus norvegicus [25]): Active
